Data taken from PubChem BioAssay AID2060906 (Molecular Pharmacology Branch, DTP, NCI, 2025).
Values joined by “and” are separate entries in the source; they are usually repeats but may differ in a detail not shown here. Equal entries are not always repeated.

Tested on: 485176-168-R4-J1-PDC complex spheroid growth
Experiment: Anticancer human tumor 485176-168-R4-J1-PDC patient-derived pancreatic adenocarcinoma cell line growth inhibition [RAS]
Conditions: for viability, T/C: stronger effect = lower value
Description: RAS pathway inhibitors in Combinations in Complex Spheroids
A high-throughput screen of multi-cell type tumor spheroids was designed to identify active combinations of RAS pathway inhibitors and targeted small molecules. Complex spheroids include a stromal component modeled by human endothelial cells (HUVEC) and fibroblasts modeled by human mesenchymal stem cells (MSCs). The concentration ranges selected for each drug and investigational agent were based upon clinically achievable concentrations if the clinical Cmax of the agent was known.
Compounds. The drugs and investigational agents: abemaciclib (NSC768073), cobimetinib (NSC768068), divarasib (GDC6063, NSC841802), docetaxel (NSC628503), GDC-1971 (RLY-1971, NSC841576), gemcitabine (NSC613327), inavolisib (NSC800729), ipatasertib (NSC767898), KB-0742 (NSC834161), MRTX-1133 (NSC836407), osimertinib (NSC779217), RMC-4630 (NSC839698), RMC-6236 (NSC851965), RMC-6291 (NSC852671), Ro-3306 (NSC812927), sapanisertib (NSC764658), SN-38 (NSC673596), staurosporine (NSC755774), SY5609 (NSC837396), and tovorafenib (DAY101, NSC766906), were obtained from the National Cancer Institute (NCI) Developmental Therapeutics Program Chemical Repository. The FDA-approved anticancer drug set is available from the NCI Developmental Therapeutics Program. […] The stock solutions were prepared in dimethyl sulfoxide (DMSO, Sigma-Aldrich, St. Louis, MO, cat. D2650) at 800-fold the tested concentration and stored at -70 degrees C prior to their use. All drugs and investigational agents were tested over a range starting from a high concentration at or near the clinical Cmax and decreasing in half-log increments. If the clinical Cmax for an agent had not been determined, the highest concentration tested was 10 microM.
Cell Culture. All cells were maintained in an incubator at 37 degrees C and 5% CO2 with 95% humidity. The PDC lines were cultured according to standard operating procedures established by the NCI PDMR. All PDCs were thawed and cultured in Matrigel-coated flasks prepared with a working solution of 1X Ham's F-12 nutrient mix, without supplementation (Invitrogen, Waltham, MA, cat. 11765054), 100 U/mL penicillin-streptomycin (Invitrogen, cat. 15140122), and 2.5% Matrigel (Corning Inc., Corning, NY, cat. 354248) for the first three passages. The 362531-283-R-J2-PDC and 782815-120-R-J1-PDC lines were cultured in 6C/Colon 1B media, which includes advanced DMEM/F-12 (Thermo Fisher Scientific, cat. 12634028), 10 mM HEPES (Thermo Fisher Scientific, cat. 15630080), 1X GlutaMAX supplement (Thermo Fisher Scientific, cat. 35050061), 0.1 mg/mL primocin (InvivoGen, San Diego, CA, cat. ant-pm-2), 10% defined fetal bovine serum, heat inactivated (HyClone Laboratories Inc., Logan, UT, cat. SH30070.03HI), 50% L-WRN conditioned media (ATCC, cat. CRL-3276), 1.25 mM N-Acetyl-L-cysteine (Sigma-Aldrich, cat. A9165), 10 mM nicotinamide (Sigma-Aldrich, cat. N0636), 1X B-27 supplement (Thermo Fisher Scientific, cat. 17504044), 1X N-2 supplement (Thermo Fisher Scientific, cat. 17502048), 50 ng/mL human EGF (Thermo Fisher Scientific, cat. PHG0311), and 10 microM Y-27632 dihydrochloride (Tocris Bioscience, cat. 1254). The K12877-001-R-J1-PDC line was cultured in 6I media, which includes all 6C/Colon 1B media plus 10 ng/mL human FGF-10 (PeproTech, cat. 100-26), 1 ng/mL human FGF-2 (PeproTech, cat. 100-18B), 1 µM prostaglandin E2 (Tocris Bioscience, cat. 2296), […] hydrocortisone (Sigma-Aldrich, cat. H4001), and […] bovine insulin (Sigma-Aldrich, cat. I6634). The K86415-001-R-J1-PDC line was cultured in 6D media, which includes all 6C/Colon 1B media components minus the L-WRN conditioned media. The 485176-168-R4-J1-PDC was cultured in PANC media, which includes all 6C/Colon 1B media plus 100 ng/mL human FGF-10 (PeproTech, cat. 100-26), 500 nM SB-431542 (Selleckchem, cat. S1067), and 10 nM gastrin (Tocris Bioscience, cat. 3006). […]

[1] = compound alone, run of 05/20/2024
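Also: spheroids exposed to compounds for seven days before readout.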
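For viability, T/C in this document: luminescence viability expressed relative to DMSO vehicle wells set as 100%.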

| SMILES | IC50 (curve of compound) | viability, T/C (compound 0.1 µM) | viability, T/C (compound 1 µM) | viability, T/C (compound 0.0316 µM) | viability, T/C (compound 0.316 µM) | viability, T/C (compound 3.16 µM) | viability, T/C (compound 10 µM) | further results |
| --- | --- | --- | --- | --- | --- | --- | --- | --- |
| C=CC(=O)Nc1cc(Nc2nccc(-c3cn(C)c4ccccc34)n2)c(OC)cc1N(C)CCN(C)C | > 1000 nM | – | 64.5% [middle of 4 runs] | 96.3% [middle of 4 runs] | 93.2% [middle of 4 runs] | – | – | viability, T/C (compound 0.00316 µM): 96.8% [middle of 4 runs]; viability, T/C (compound 0.01 µM): 97.1% [middle of 4 runs] |
| CC(=O)OC12COC1CC(O)C1(C)C(=O)C(O)C3=C(C)C(OC(=O)C(O)C(NC(=O)OC(C)(C)C)c4ccccc4)CC(O)(C(OC(=O)c4ccccc4)C21)C3(C)C (configuration not stated) | < 31.6 nM | 14.3% [middle of 4 runs] | 13.4% and 12.8% and 14.2% (2×) | 15.6% [middle of 4 runs] | 12.7% [middle of 4 runs] | 17.2% [middle of 4 runs] | 17.7% and 22.4% (2×) and 25.1% | – |
| CC(Nc1ccc2c(c1)OCCn1cc(N3C(=O)OCC3C(F)F)nc1-2)C(N)=O (configuration not stated) | > 10000 nM | 89.2% [middle of 4 runs] | 75.3% [middle of 4 runs] | 97.9% [middle of 4 runs] | 84.7% [middle of 4 runs] | 69.1% [middle of 4 runs] | 55.5% [middle of 4 runs] | – |
| CC1(C)CCC(Nc2ncc(C(F)(F)F)c(-c3c[nH]c4c(P(C)(C)=O)c(C#N)ccc34)n2)CN1 (configuration not stated) | – | – | – | – | – | – | – | viability, T/C (compound 0.000949 µM): 110% (2×) and 103% and 111%; viability, T/C (compound 0.003 µM): 90.3% [middle of 4 runs]; viability, T/C (compound 0.00949 µM): 77.3% [middle of 4 runs]; viability, T/C (compound 0.03 µM): 62.6% [middle of 4 runs]; viability, T/C (compound 0.0949 µM): 50.2% [middle of 4 runs]; viability, T/C (compound 0.3 µM): 49.1% [middle of 4 runs] |
| CC1(O)CCCC1n1c(=O)c(C(F)F)cc2cnc(NC3CCN(S(C)(=O)=O)CC3)nc21 (configuration not stated) | 2.72 µM [middle of 4 runs] | 77.6% [middle of 4 runs] | 72.5% [middle of 4 runs] | 102% [middle of 4 runs] | 70.4% [middle of 4 runs] | 57.5% [middle of 4 runs] | 2.58% [middle of 4 runs] | – |
| CCC(CC)c1cc(NC2CCC(N)C2)n2nccc2n1 (configuration not stated) | 1.58 µM [middle of 4 runs] | 93.7% [middle of 4 runs] | 80.6% [middle of 4 runs] | 105% [middle of 4 runs] | 98.9% [middle of 4 runs] | 3.56% [middle of 4 runs] | 0.72% [middle of 4 runs] | – |
| CCc1c2c(nc3ccc(O)cc13)-c1cc3c(c(=O)n1C2)COC(=O)[C@]3(O)CC | 17.9 nM [middle of 4 runs] | – | – | – | – | – | – | viability, T/C (compound 0.003 µM): 86.2% [middle of 4 runs]; viability, T/C (compound 0.00949 µM): 66% [middle of 4 runs]; viability, T/C (compound 0.03 µM): 36.5% [middle of 4 runs]; viability, T/C (compound 0.0949 µM): 14% [middle of 4 runs]; viability, T/C (compound 0.3 µM): 7.88% [middle of 4 runs] |
| CCn1c(-c2cc(N3CCN(C)CC3)cnc2C(C)OC)c2c3cc(ccc31)-c1csc(n1)CC(NC(=O)C1CC1C)C(=O)N1CCCC(N1)C(=O)OCC(C)(C)C2 (configuration not stated) | – | – | – | – | – | – | – | viability, T/C (compound 0.000949 µM): 102% [middle of 8 runs]; viability, T/C (compound 0.003 µM): 102% [middle of 8 runs]; viability, T/C (compound 0.00949 µM): 92.2% [middle of 8 runs]; IC50 [1]: > 300 nM |
| CCn1c(-c2cccnc2C(C)OC)c2c3cc(ccc31)N1CCOC(CC(NC(=O)C(C(C)C)N(C)C(=O)C3(F)CCN(C(=O)C#CC(C)(C)N(C)C)CC3)C(=O)N3CCCC(N3)C(=O)OCC(C)(C)C2)C1 (configuration not stated) | – | – | – | – | – | – | – | viability, T/C (compound 0.003 µM): 104% [middle of 8 runs]; viability, T/C (compound 0.00949 µM): 107% [middle of 8 runs]; viability, T/C (compound 0.03 µM): 93.8% [middle of 8 runs]; viability, T/C (compound 0.0949 µM): 93% [middle of 8 runs]; viability, T/C (compound 0.3 µM): 81.7% [middle of 8 runs]; IC50 [1]: > 300 nM |
| Nc1ccn(C2OC(CO)C(O)C2(F)F)c(=O)n1 (configuration not stated) | 16.7 nM [middle of 4 runs] | 9.63% [middle of 4 runs] | 12.4% [middle of 4 runs] | 17.7% [middle of 4 runs] | 9.78% [middle of 4 runs] | – | – | viability, T/C (compound 0.00316 µM): 97.3% [middle of 4 runs] |
| O=C(c1ccc(F)c(F)c1Nc1ccc(I)cc1F)N1CC(O)([C@@H]2CCCCN2)C1 | 206 nM [middle of 4 runs] | 53.7% [middle of 4 runs] | 39.7% [middle of 4 runs] | 71% [middle of 4 runs] | 51.2% [middle of 4 runs] | – | – | viability, T/C (compound 0.00316 µM): 91.9% [middle of 4 runs]; viability, T/C (compound 0.01 µM): 78.6% [middle of 4 runs] |

Continued, in another order:

| IC50 (curve of compound) | SMILES | viability, T/C (compound 0.1 µM) | viability, T/C (compound 1 µM) | viability, T/C (compound 0.0316 µM) | viability, T/C (compound 0.316 µM) | viability, T/C (compound 3.16 µM) | viability, T/C (compound 10 µM) | further results |
| --- | --- | --- | --- | --- | --- | --- | --- | --- |
| > 1000 nM | C=CC(=O)N1CCN(c2nc(OCC3CCCN3C)nc3c(F)c(-c4nc(N)cc(C)c4C(F)(F)F)c(Cl)cc23)C(C)C1 (configuration not stated) | 98.5% [middle of 12 runs] | 102% [middle of 12 runs] | – | – | – | – | IC50 (compound alone, run of 06/10/2024): > 1000 nM |
| 2.32 µM [middle of 4 runs] | CC(C)NCC(C(=O)N1CCN(c2ncnc3c2C(C)CC3O)CC1)c1ccc(Cl)cc1 (configuration not stated) | 93.9% [middle of 4 runs] | 58.8% [middle of 4 runs] | 96.6% [middle of 4 runs] | 80.4% [middle of 4 runs] | 47.7% [middle of 4 runs] | 35% [middle of 4 runs] | – |
| 31.2 nM [middle of 4 runs] | CC(C)n1nc(-c2ccc3oc(N)nc3c2)c2c(N)ncnc21 | 22.3% [middle of 4 runs] | – | 49.2% [middle of 4 runs] | – | – | – | viability, T/C (compound 0.000316 µM): 104% [middle of 4 runs]; viability, T/C (compound 0.001 µM): 77.8% [middle of 4 runs]; viability, T/C (compound 0.00316 µM): 84.1% [middle of 4 runs]; viability, T/C (compound 0.01 µM): 77.2% [middle of 4 runs] |
| > 1000 nM | CCN1CCN(Cc2ccc(Nc3ncc(F)c(-c4cc(F)c5nc(C)n(C(C)C)c5c4)n3)nc2)CC1 | – | 67.7% [middle of 4 runs] | 100% [middle of 4 runs] | 75.5% [middle of 4 runs] | – | – | viability, T/C (compound 0.00316 µM): 92.9% [middle of 4 runs]; viability, T/C (compound 0.01 µM): 88.4% [middle of 4 runs] |
| > 10000 nM | C[C@@H](NC(=O)c1ncnc(N)c1Cl)c1ncc(C(=O)Nc2cc(C(F)(F)F)c(Cl)cn2)s1 | 96% [middle of 4 runs] | 79.2% [middle of 4 runs] | 105% [middle of 4 runs] | 88.5% [middle of 4 runs] | 79.1% [middle of 4 runs] | 60.9% [middle of 4 runs] | – |
| > 10000 nM | Cc1nc(N2CCC3(CC2)COC(C)C3N)c(CO)nc1Sc1ccnc(N)c1Cl (configuration not stated) | 86.5% [middle of 4 runs] | 74.3% [middle of 4 runs] | 102% [middle of 4 runs] | 82.8% [middle of 4 runs] | 84.5% [middle of 4 runs] | 63.4% (2×) and 81.9% and 74.9% | – |
